Data as given in ChEMBL document CHEMBL5052842, “Pharmaceutical compounds and their use as inhibitors of ubiquitin specific protease 19 (usp19)” (2020).

Target: T1, Ubiquitin carboxyl-terminal hydrolase 19 (Homo sapiens, UniProt O94966)
T1 sequence (O94966 whole entry): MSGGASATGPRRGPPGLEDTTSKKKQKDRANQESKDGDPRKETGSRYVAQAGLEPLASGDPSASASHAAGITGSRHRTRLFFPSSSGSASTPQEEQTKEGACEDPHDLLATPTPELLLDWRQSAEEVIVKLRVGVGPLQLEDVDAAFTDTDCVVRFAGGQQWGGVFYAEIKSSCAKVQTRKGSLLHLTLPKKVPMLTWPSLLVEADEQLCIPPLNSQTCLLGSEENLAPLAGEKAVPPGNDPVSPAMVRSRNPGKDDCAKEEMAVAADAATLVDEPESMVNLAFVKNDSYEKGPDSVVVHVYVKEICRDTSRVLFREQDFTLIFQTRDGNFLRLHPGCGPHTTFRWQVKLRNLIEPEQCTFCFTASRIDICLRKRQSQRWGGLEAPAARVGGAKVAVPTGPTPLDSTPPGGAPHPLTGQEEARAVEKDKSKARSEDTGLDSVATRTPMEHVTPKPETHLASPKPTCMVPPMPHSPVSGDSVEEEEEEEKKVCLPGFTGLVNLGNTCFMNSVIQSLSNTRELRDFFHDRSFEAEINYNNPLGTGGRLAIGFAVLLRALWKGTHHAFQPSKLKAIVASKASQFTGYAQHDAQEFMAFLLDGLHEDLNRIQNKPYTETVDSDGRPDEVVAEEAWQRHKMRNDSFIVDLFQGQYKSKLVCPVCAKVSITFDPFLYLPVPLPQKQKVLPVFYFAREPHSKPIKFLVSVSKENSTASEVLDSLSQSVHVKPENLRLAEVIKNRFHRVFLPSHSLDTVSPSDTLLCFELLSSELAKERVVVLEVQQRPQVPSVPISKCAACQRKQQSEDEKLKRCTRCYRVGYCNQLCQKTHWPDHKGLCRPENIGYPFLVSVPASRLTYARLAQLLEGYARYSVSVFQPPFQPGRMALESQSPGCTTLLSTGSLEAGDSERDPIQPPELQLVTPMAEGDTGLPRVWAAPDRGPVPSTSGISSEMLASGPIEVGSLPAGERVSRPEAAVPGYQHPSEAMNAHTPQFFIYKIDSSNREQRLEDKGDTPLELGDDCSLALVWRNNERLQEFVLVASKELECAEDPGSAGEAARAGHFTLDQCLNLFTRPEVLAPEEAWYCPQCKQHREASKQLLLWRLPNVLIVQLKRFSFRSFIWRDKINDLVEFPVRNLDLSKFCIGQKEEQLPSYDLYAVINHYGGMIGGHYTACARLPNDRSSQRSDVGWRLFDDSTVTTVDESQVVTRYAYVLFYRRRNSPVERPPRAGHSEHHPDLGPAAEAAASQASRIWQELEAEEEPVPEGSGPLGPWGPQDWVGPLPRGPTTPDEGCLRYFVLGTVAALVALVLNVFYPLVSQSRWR
Test: Inhibition of C-terminal His6-tagged recombinant human USP19 using iso-peptide ubiquitin-Lys-TAMRA as substrate incubated for 30 mins and measured after 90 mins by fluorescent polarization assay

## Cn1ccc(-c2cc(=O)n(C[C@]3(O)CCN(C(=O)N4CCNC[C@H]4c4ccccc4)CC34CCCC4)cn2)n1
  IC50: < 500 nM

## O=C(N1CC[C@@](O)(Cn2cnc(-c3ccccc3F)cc2=O)C2(CCCC2)C1)N1CCNC[C@H]1c1cc(F)cc(F)c1
  IC50: < 500 nM

## O=C(N1CC[C@@](O)(Cn2cnc(-c3ccccc3)cc2=O)C2(CCCC2)C1)N1CCNC[C@H]1c1cc(F)ccc1F
  IC50: < 500 nM

## COc1ccc(-c2cc(=O)n(C[C@]3(O)CCN(C(=O)N4CCNC[C@H]4c4ccccc4)CC34CCCC4)cn2)s1
  IC50: < 500 nM

## O=C(N1CC[C@@](O)(Cn2cnc(N3CCC(F)CC3)cc2=O)C2(CCCC2)C1)N1CCNC[C@H]1c1ccccc1
  IC50: < 500 nM

## C[C@@]1(c2ccccc2)CNCCN1C(=O)N1CC[C@@](O)(Cn2cnc(-c3ccccc3)cc2=O)C2(CCCC2)C1
  IC50: < 500 nM

## O=C(N1CC[C@@](O)(Cn2cnc(-c3cccc(F)c3)cc2=O)C2(CCCC2)C1)N1CCNC[C@H]1c1cc(F)ccc1F
  IC50: < 500 nM

## Cc1cccc(-c2cc(=O)n(C[C@]3(O)CCN(C(=O)N4CCNC[C@H]4c4cc(F)ccc4F)CC34CCCC4)cn2)c1
  IC50: < 500 nM

## O=C(N1CC[C@@](O)(Cn2cnc(-c3ccccc3F)cc2=O)C2(CCCC2)C1)N1CCNC[C@H]1c1cc(F)ccc1F
  IC50: < 500 nM

## COc1ccccc1-c1cc(=O)n(C[C@]2(O)CCN(C(=O)N3CCNC[C@H]3c3cc(F)ccc3F)CC23CCCC3)cn1
  IC50: < 500 nM

## N[C@H]1CCN(C(=O)N2CC[C@@](O)(Cn3cnc(-c4ccccc4)cc3=O)C3(CCCC3)C2)[C@H](c2ccccc2)C1
  IC50: < 500 nM

## O=C(N1CC[C@@](O)(Cn2cnc(-c3ccccc3F)cc2=O)C2(CCCC2)C1)N1CCNC[C@H]1c1cccc(F)c1
  IC50: < 500 nM

## O=C(N1CC[C@@](O)(Cn2cnc(N3CC4CC4C3)cc2=O)C2(CCCC2)C1)N1CCNC[C@H]1c1ccccc1 (stereo partly specified)
  IC50: < 500 nM

## O=C(N1CC[C@@](O)(Cn2ccc(-c3ccccc3F)cc2=O)C2(CCCC2)C1)N1CCNC[C@H]1c1cccc(F)c1
  IC50: < 500 nM

## Cn1nc(C(F)(F)F)cc1-c1cc(=O)n(C[C@]2(O)CCN(C(=O)N3CCNC[C@H]3c3ccccc3)CC23CCCC3)cn1
  IC50: < 500 nM

## O=C(N1CC[C@@](O)(Cn2ccc(-c3ccccc3)cc2=O)C2(CCCC2)C1)N1CCNC[C@H]1c1cc(F)ccc1F
  IC50: < 500 nM

## O=C(N1CC[C@@](O)(Cn2cnc(-c3ccsc3)cc2=O)C2(CCCC2)C1)N1CCNC[C@H]1c1ccccc1
  IC50: < 500 nM

## O=C(N1CC[C@@](O)(Cn2cnc(-c3ccccc3)cc2=O)C2(CCCC2)C1)N1CCSC[C@H]1c1cc(F)ccc1F
  IC50: < 500 nM

## O=C(N1CC[C@@](O)(Cn2cnc(C3CC3)cc2=O)C2(CCCC2)C1)N1CCNC[C@H]1c1cc(F)ccc1F
  IC50: < 500 nM

## O=C(N1CC[C@@](O)(Cn2cnc(-c3ccccc3C(F)F)cc2=O)C2(CCCC2)C1)N1CCNC[C@H]1c1ccccc1
  IC50: < 500 nM

## O=C(N1CC[C@@](O)(Cn2cnc(N3CC4CC4C3)cc2=O)C2(CCCC2)C1)N1CCNC[C@H]1c1cc(F)ccc1F (stereo partly specified)
  IC50: < 500 nM

## O=C(N1CC[C@@](O)(Cn2cnc(-c3ccccc3)cc2=O)C2(CCCC2)C1)N1CCNC[C@H]1c1cccc(F)c1F
  IC50: < 500 nM

## O=C(N1CC[C@@](O)(Cn2cnc(-c3ccccc3)cc2=O)C2(CCCC2)C1)N1CCNC[C@H]1c1ccc(F)cc1
  IC50: < 500 nM

## COc1ccc(F)cc1-c1cc(=O)n(C[C@]2(O)CCN(C(=O)N3CCNC[C@H]3c3ccccc3)CC23CCCC3)cn1
  IC50: < 500 nM

## O=C(N1CC[C@@](O)(Cn2cnc(-c3ccccc3)cc2=O)C2(CCCC2)C1)N1CCS(=O)(=O)C[C@H]1c1cc(F)ccc1F
  IC50: < 500 nM

## O=C(N1CC[C@@](O)(Cn2cnc(-c3cccc(F)c3F)cc2=O)C2(CCCC2)C1)N1CCNC[C@H]1c1ccccc1
  IC50: < 500 nM

## O=C(N1CC[C@@](O)(Cn2cnc(-c3ccc4c(c3)CCO4)cc2=O)C2(CCCC2)C1)N1CCNC[C@H]1c1ccccc1
  IC50: < 500 nM

## COc1ccccc1-c1cc(=O)n(C[C@]2(O)CCN(C(=O)N3CCNC[C@H]3c3cccc(F)c3)CC23CCCC3)cn1
  IC50: < 500 nM

## O=C(N1CC[C@@](O)(Cn2cnc(N3CCC(F)(F)CC3)cc2=O)C2(CCCC2)C1)N1CCNC[C@H]1c1ccccc1
  IC50: < 500 nM

## N[C@@H]1CCN(C(=O)N2CC[C@@](O)(Cn3cnc(-c4ccccc4)cc3=O)C3(CCCC3)C2)[C@H](c2ccccc2)C1
  IC50: < 500 nM

## O=C(N1CC[C@@](O)(Cn2cnc(-c3ccccc3C(F)(F)F)cc2=O)C2(CCCC2)C1)N1CCNC[C@H]1c1ccccc1
  IC50: < 500 nM

## O=C(N1CC[C@@](O)(Cn2cnc(-c3ccc(OC4CC4)cc3)cc2=O)C2(CCCC2)C1)N1CCNC[C@H]1c1ccccc1
  IC50: < 500 nM

## O=C(N1CC[C@@](O)(Cn2cnc(C3CC3)cc2=O)C2(CCCC2)C1)N1CCNC[C@H]1c1cccc(F)c1
  IC50: < 500 nM

## O=C(N1CC[C@@](O)(Cn2cnc(-c3ccccc3)cc2=O)C2(CCCC2)C1)N1CCNCC1c1ccc(F)c(F)c1 (stereo partly specified)
  IC50: < 500 nM

## O=C1CN(C(=O)N2CC[C@@](O)(Cn3cnc(-c4ccccc4)cc3=O)C3(CCCC3)C2)[C@H](c2ccccc2)CN1
  IC50: < 500 nM

## O=C(N1CC[C@@](O)(Cn2cnc(N3CCCC(F)(F)C3)cc2=O)C2(CCCC2)C1)N1CCNC[C@H]1c1ccccc1
  IC50: < 500 nM

## O=C(N1CC[C@@](O)(Cn2cnc(N3CCCCC3)cc2=O)C2(CCCC2)C1)N1CCNC[C@H]1c1ccccc1
  IC50: < 500 nM

## O=C(N1CC[C@@](O)(Cn2cnc(-c3ccccc3)cc2=O)C2(CCCC2)C1)N1CCNCC1c1ccccc1F (stereo partly specified)
  IC50: < 500 nM

## Cc1cccc(F)c1-c1cc(=O)n(C[C@]2(O)CCN(C(=O)N3CCNC[C@H]3c3ccccc3)CC23CCCC3)cn1
  IC50: < 500 nM

## Cc1ccc(-c2cc(=O)n(C[C@]3(O)CCN(C(=O)N4CCNC[C@H]4c4ccccc4)CC34CCCC4)cn2)cc1
  IC50: < 500 nM

## O=C(N1CC[C@@](O)(Cn2cnc(-c3cccc(F)c3)cc2=O)C2(CCCC2)C1)N1CCNC[C@H]1c1cccc(F)c1
  IC50: < 500 nM

## O=C(N1CC[C@@](O)(Cn2cnc(-c3ccc4c(c3)OCC4)cc2=O)C2(CCCC2)C1)N1CCNC[C@H]1c1ccccc1
  IC50: < 500 nM

## COc1c(F)cccc1-c1cc(=O)n(C[C@]2(O)CCN(C(=O)N3CCNC[C@H]3c3ccccc3)CC23CCCC3)cn1
  IC50: < 500 nM

## O=C(N1CC[C@@](O)(Cn2cnc(-c3ccccc3)cc2=O)C2(CCCC2)C1)N1CCNCC1c1cc(F)cc(F)c1 (stereo partly specified)
  IC50: < 500 nM

## O=C(N1CC[C@@](O)(Cn2cnc(-c3ccccc3)cc2=O)C2(CCCC2)C1)N1CCNC[C@H]1c1ccc(F)cc1F
  IC50: < 500 nM

## O=C(N1CC[C@@](O)(Cn2cnc(-c3ccccc3OC(F)F)cc2=O)C2(CCCC2)C1)N1CCNC[C@H]1c1ccccc1
  IC50: < 500 nM

## O=C(N1CC[C@@](O)(Cn2cnc(-c3cccs3)cc2=O)C2(CCCC2)C1)N1CCNC[C@H]1c1ccccc1
  IC50: < 500 nM

## O=C(N1CC[C@@](O)(Cn2cnc(-c3ccc(Cl)cc3)cc2=O)C2(CCCC2)C1)N1CCNC[C@H]1c1ccccc1
  IC50: < 500 nM

## O=C(N1CC[C@@](O)(Cn2cnc(-c3ccccc3OC(F)(F)F)cc2=O)C2(CCCC2)C1)N1CCNC[C@H]1c1ccccc1
  IC50: < 500 nM

## O=C(N1CC[C@@](O)(Cn2cnc(-c3ccccc3OC3CC3)cc2=O)C2(CCCC2)C1)N1CCNC[C@H]1c1ccccc1
  IC50: < 500 nM

## O=C(N1CC[C@@](O)(Cn2cnc(-c3ccccc3)cc2=O)C2(CCCC2)C1)N1CCNCC1c1cccs1 (stereo partly specified)
  IC50: < 500 nM

## O=C(N1CC[C@@](O)(Cn2cnc(N3CCC(F)(F)C3)cc2=O)C2(CCCC2)C1)N1CCNC[C@H]1c1ccccc1
  IC50: < 500 nM

## N=S1(=O)CCN(C(=O)N2CC[C@@](O)(Cn3cnc(-c4ccccc4)cc3=O)C3(CCCC3)C2)[C@H](c2cc(F)ccc2F)C1 (stereo partly specified)
  IC50: < 500 nM

## O=C(N1CC[C@@](O)(Cn2cnc(N3CC(F)(F)C3)cc2=O)C2(CCCC2)C1)N1CCNC[C@H]1c1ccccc1
  IC50: < 500 nM

## COc1cccc(F)c1-c1cc(=O)n(C[C@]2(O)CCN(C(=O)N3CCNC[C@H]3c3ccccc3)CC23CCCC3)cn1
  IC50: < 500 nM

## O=C(N1CC[C@@](O)(Cn2cnc(-c3ccc4c(c3)COC4)cc2=O)C2(CCCC2)C1)N1CCNC[C@H]1c1ccccc1
  IC50: < 500 nM
